ChEMBL document CHEMBL1147101, “Development and persistence of antimicrobial resistance in Pseudomonas aeruginosa: a longitudinal observation in mechanically ventilated patients” (Antimicrob Agents Chemother, 2007)
Calls of active or inactive are those of the source.

Tests used:
Assay type in all cases: functional, organism-based
Conditions in all cases: Trachea
Pseudomonas aeruginosa [1] = test: Antimicrobial activity against Pseudomonas aeruginosa 1B9 tracheal isolates from mechanically ventilated tuberculosis patient
Pseudomonas aeruginosa [2] = test: Antimicrobial activity against Pseudomonas aeruginosa 13D11 tracheal isolates from mechanically ventilated chronic respiratory insufficiency patient
Pseudomonas aeruginosa [3] = test: Antimicrobial activity against Pseudomonas aeruginosa 13E1 tracheal isolates from mechanically ventilated chronic respiratory insufficiency patient
Pseudomonas aeruginosa [4] = test: Antimicrobial activity against Pseudomonas aeruginosa 2C2 tracheal isolates from mechanically ventilated tuberculosis patient
Pseudomonas aeruginosa [5] = test: Antimicrobial activity against Pseudomonas aeruginosa 2A3 tracheal isolates from mechanically ventilated tuberculosis patient
Pseudomonas aeruginosa [6] = test: Antimicrobial activity against Pseudomonas aeruginosa 2F6 tracheal isolates from mechanically ventilated tuberculosis patient
Pseudomonas aeruginosa [7] = test: Antimicrobial activity against Pseudomonas aeruginosa 2A7 tracheal isolates from mechanically ventilated tuberculosis patient
Pseudomonas aeruginosa [8] = test: Antimicrobial activity against Pseudomonas aeruginosa 2A9 tracheal isolates from mechanically ventilated tuberculosis patient
Pseudomonas aeruginosa [9] = test: Antimicrobial activity against Pseudomonas aeruginosa 65.68-1 tracheal isolates from mechanically ventilated tuberculosis patient
Pseudomonas aeruginosa [10] = test: Antimicrobial activity against Pseudomonas aeruginosa 65.68-2 tracheal isolates from mechanically ventilated tuberculosis patient
Pseudomonas aeruginosa [11] = test: Antimicrobial activity against Pseudomonas aeruginosa 5H6 tracheal isolates from mechanically ventilated chronic respiratory insufficiency patient
Pseudomonas aeruginosa [12] = test: Antimicrobial activity against Pseudomonas aeruginosa 65.68-4 tracheal isolates from mechanically ventilated tuberculosis patient
Pseudomonas aeruginosa [13] = test: Antimicrobial activity against Pseudomonas aeruginosa 2A5 tracheal isolates from mechanically ventilated chronic respiratory insufficiency patient
Pseudomonas aeruginosa [14] = test: Antimicrobial activity against Pseudomonas aeruginosa 12A7 tracheal isolates from mechanically ventilated chronic respiratory insufficiency patient
Pseudomonas aeruginosa [15] = test: Antimicrobial activity against Pseudomonas aeruginosa 12B2 tracheal isolates from mechanically ventilated chronic respiratory insufficiency patient
Pseudomonas aeruginosa [16] = test: Antimicrobial activity against Pseudomonas aeruginosa 15H5 tracheal isolates from mechanically ventilated chronic respiratory insufficiency patient
Pseudomonas aeruginosa [17] = test: Antimicrobial activity against Pseudomonas aeruginosa 19B3 tracheal isolates from mechanically ventilated chronic respiratory insufficiency patient
Pseudomonas aeruginosa [18] = test: Antimicrobial activity against Pseudomonas aeruginosa 19B6 tracheal isolates from mechanically ventilated chronic respiratory insufficiency patient
Pseudomonas aeruginosa [19] = test: Antimicrobial activity against Pseudomonas aeruginosa 19C7 tracheal isolates from mechanically ventilated chronic respiratory insufficiency patient
Pseudomonas aeruginosa [20] = test: Antimicrobial activity against Pseudomonas aeruginosa 19D9 tracheal isolates from mechanically ventilated chronic respiratory insufficiency patient
Pseudomonas aeruginosa [21] = test: Antimicrobial activity against Pseudomonas aeruginosa 3D1 tracheal isolates from mechanically ventilated chronic respiratory insufficiency patient
Pseudomonas aeruginosa [22] = test: Antimicrobial activity against Pseudomonas aeruginosa 3E2 tracheal isolates from mechanically ventilated chronic respiratory insufficiency patient
Pseudomonas aeruginosa [23] = test: Antimicrobial activity against Pseudomonas aeruginosa 5G3 tracheal isolates from mechanically ventilated chronic respiratory insufficiency patient
Pseudomonas aeruginosa [24] = test: Antimicrobial activity against Pseudomonas aeruginosa 8A2 tracheal isolates from mechanically ventilated chronic respiratory insufficiency patient
Pseudomonas aeruginosa [25] = test: Antimicrobial activity against Pseudomonas aeruginosa 8A12 tracheal isolates from mechanically ventilated chronic respiratory insufficiency patient
Pseudomonas aeruginosa [26] = test: Antimicrobial activity against Pseudomonas aeruginosa 8C4 tracheal isolates from mechanically ventilated chronic respiratory insufficiency patient
Pseudomonas aeruginosa [27] = test: Antimicrobial activity against Pseudomonas aeruginosa 8B11 tracheal isolates from mechanically ventilated chronic respiratory insufficiency patient
Pseudomonas aeruginosa [28] = test: Antimicrobial activity against Pseudomonas aeruginosa 9A3 tracheal isolates from mechanically ventilated chronic respiratory insufficiency patient
Pseudomonas aeruginosa [29] = test: Antimicrobial activity against Pseudomonas aeruginosa 9A10 tracheal isolates from mechanically ventilated chronic respiratory insufficiency patient
Pseudomonas aeruginosa [30] = test: Antimicrobial activity against Pseudomonas aeruginosa 9B2 tracheal isolates from mechanically ventilated chronic respiratory insufficiency patient
Pseudomonas aeruginosa [31] = test: Antimicrobial activity against Pseudomonas aeruginosa 9B5 tracheal isolates from mechanically ventilated chronic respiratory insufficiency patient
Pseudomonas aeruginosa [32] = test: Antimicrobial activity against Pseudomonas aeruginosa 10A6 tracheal isolates from mechanically ventilated chronic respiratory insufficiency patient
Pseudomonas aeruginosa [33] = test: Antimicrobial activity against Pseudomonas aeruginosa 10A9 tracheal isolates from mechanically ventilated chronic respiratory insufficiency patient
Pseudomonas aeruginosa [34] = test: Antimicrobial activity against Pseudomonas aeruginosa 10B1 tracheal isolates from mechanically ventilated chronic respiratory insufficiency patient
Pseudomonas aeruginosa [35] = test: Antimicrobial activity against Pseudomonas aeruginosa 24G1 tracheal isolates from mechanically ventilated chronic respiratory insufficiency patient
Pseudomonas aeruginosa [36] = test: Antimicrobial activity against Pseudomonas aeruginosa 29F6 tracheal isolates from mechanically ventilated chronic respiratory insufficiency patient
Pseudomonas aeruginosa [37] = test: Antimicrobial activity against Pseudomonas aeruginosa 29G6 tracheal isolates from mechanically ventilated chronic respiratory insufficiency patient
Pseudomonas aeruginosa [38] = test: Antimicrobial activity against Pseudomonas aeruginosa 29G7 tracheal isolates from mechanically ventilated chronic respiratory insufficiency patient
Pseudomonas aeruginosa [39] = test: Antimicrobial activity against Pseudomonas aeruginosa 29G8 tracheal isolates from mechanically ventilated chronic respiratory insufficiency patient
Pseudomonas aeruginosa [40] = test: Antimicrobial activity against Pseudomonas aeruginosa 19E2 tracheal isolates from mechanically ventilated chronic respiratory insufficiency patient
Pseudomonas aeruginosa [41] = test: Antimicrobial activity against Pseudomonas aeruginosa 19E9 tracheal isolates from mechanically ventilated chronic respiratory insufficiency patient
Pseudomonas aeruginosa [42] = test: Antimicrobial activity against Pseudomonas aeruginosa 22D2 tracheal isolates from mechanically ventilated chronic respiratory insufficiency patient
Pseudomonas aeruginosa [43] = test: Antimicrobial activity against Pseudomonas aeruginosa 22D6 tracheal isolates from mechanically ventilated chronic respiratory insufficiency patient
Pseudomonas aeruginosa [44] = test: Antimicrobial activity against Pseudomonas aeruginosa 22D9 tracheal isolates from mechanically ventilated chronic respiratory insufficiency patient
Pseudomonas aeruginosa [45] = test: Antimicrobial activity against Pseudomonas aeruginosa 22E1 tracheal isolates from mechanically ventilated chronic respiratory insufficiency patient
Pseudomonas aeruginosa [46] = test: Antimicrobial activity against Pseudomonas aeruginosa 22E3 tracheal isolates from mechanically ventilated chronic respiratory insufficiency patient
Pseudomonas aeruginosa [47] = test: Antimicrobial activity against Pseudomonas aeruginosa 22C5 tracheal isolates from mechanically ventilated chronic respiratory insufficiency patient
Pseudomonas aeruginosa [48] = test: Antimicrobial activity against Pseudomonas aeruginosa 24E5 tracheal isolates from mechanically ventilated chronic respiratory insufficiency patient
Pseudomonas aeruginosa [49] = test: Antimicrobial activity against Pseudomonas aeruginosa P21.21 tracheal isolates from mechanically ventilated tuberculosis patient
Pseudomonas aeruginosa [50] = test: Antimicrobial activity against Pseudomonas aeruginosa P21.23 tracheal isolates from mechanically ventilated tuberculosis patient
Pseudomonas aeruginosa [51] = test: Antimicrobial activity against Pseudomonas aeruginosa 65.33-1 tracheal isolates from mechanically ventilated tuberculosis patient
Pseudomonas aeruginosa [52] = test: Antimicrobial activity against Pseudomonas aeruginosa 65.36-3 tracheal isolates from mechanically ventilated tuberculosis patient
Pseudomonas aeruginosa [53] = test: Antimicrobial activity against Pseudomonas aeruginosa 65.36-4 tracheal isolates from mechanically ventilated tuberculosis patient
Pseudomonas aeruginosa [54] = test: Antimicrobial activity against Pseudomonas aeruginosa 65.38-1 tracheal isolates from mechanically ventilated tuberculosis patient
Pseudomonas aeruginosa [55] = test: Antimicrobial activity against Pseudomonas aeruginosa 1A9 tracheal isolates from mechanically ventilated tuberculosis patient
Pseudomonas aeruginosa [56] = test: Antimicrobial activity against Pseudomonas aeruginosa 2A5 tracheal isolates from mechanically ventilated tuberculosis patient
Pseudomonas aeruginosa [57] = test: Antimicrobial activity against Pseudomonas aeruginosa 65.33-2 tracheal isolates from mechanically ventilated tuberculosis patient
Pseudomonas aeruginosa [58] = test: Antimicrobial activity against Pseudomonas aeruginosa 65.33-4 tracheal isolates from mechanically ventilated tuberculosis patient
Pseudomonas aeruginosa [59] = test: Antimicrobial activity against Pseudomonas aeruginosa 65.36-1 tracheal isolates from mechanically ventilated tuberculosis patient

Measured: Activity

NCC[C@H](O)C(=O)N[C@@H]1C[C@H](N)[C@@H](O[C@H]2O[C@H](CN)[C@@H](O)[C@H](O)[C@H]2O)[C@H](O)[C@H]1O[C@H]1O[C@H](CO)[C@@H](O)[C@H](N)[C@H]1O
inactive: Pseudomonas aeruginosa [1] | Pseudomonas aeruginosa [6] | Pseudomonas aeruginosa [7] | Pseudomonas aeruginosa [8] | Pseudomonas aeruginosa [52] | Pseudomonas aeruginosa [53] | Pseudomonas aeruginosa [54]
not listed: Pseudomonas aeruginosa [55] | Pseudomonas aeruginosa [56] | Pseudomonas aeruginosa [57] | Pseudomonas aeruginosa [58] | Pseudomonas aeruginosa [59]
active: all other assays above

CO/N=C(\C(=O)N[C@@H]1C(=O)N2C(C(=O)[O-])=C(C[N+]3(C)CCCC3)CS[C@H]12)c1csc(N)n1
inactive: Pseudomonas aeruginosa [1] | Pseudomonas aeruginosa [6] | Pseudomonas aeruginosa [7] | Pseudomonas aeruginosa [53] | Pseudomonas aeruginosa [54]
not listed: Pseudomonas aeruginosa [8] | Pseudomonas aeruginosa [52]
active: all other assays above
